Assay results taken from US10045983B2, “Heteroaryl pyridone and aza-pyrodine compounds” (Genentech, Inc., priority 2011, dated 2018).

Assay: CD69 Whole Blood Assay (CD69 Hu Blood FACS)
Format: cell-based, human
Settings: Lymphocyte; human whole blood, anti-IgM activated B lymphocytes, FACS; IC70; Table 2 (unit inferred); read-out: CD69 Hu Blood FACS (IC70)
In short: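 Compounds tested for blocking B-cell CD69 induction by flow cytometry in human whole blood, with activation via anti-human IgM goat F(ab′)2 crosslinking of surface IgM.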

`COCCN1CCn2nc(Nc3cc(-c4ccnc(N5CCc6c(sc7c6CC(C)(C)C7)C5=O)c4CO)cn(C)c3=O)cc2C1` [Example 308, 3-[3-(hydroxymethyl)-4-[5-[[5-(2-methoxyethyl)-6,7-dihydro-4H-pyrazolo[1,5-a]pyrazin-2-yl]amino]-1-methyl-6-oxo-3-pyridyl]-2-pyridyl]-7,7-dimethyl-1,2,6,8-tetrahydrocyclopenta[3,4]thieno[1,3-c]pyridin-4-one] showed an IC70 of 54.6 nM.
Work on `COCCCN1CCn2nc(Nc3cc(-c4ccnc(N5CCn6c(cc7c6CC(C)(C)C7)C5=O)c4CO)cn(C)c3=O)cc2C1` [Example 309, 3-[3-(hydroxymethyl)-4-[5-[[5-(3-methoxypropyl)-6,7-dihydro-4H-pyrazolo[1,5-a]pyrazin-2-yl]amino]-1-methyl-6-oxo-3-pyridyl]-2-pyridyl]-7,7-dimethyl-1,2,6,8-tetrahydrocyclopenta[3,4]pyrrolo[3,5-b]pyrazin-4-one] yielded an IC70 of 39.8 nM.
With `Cc1cc(Nc2cc(-c3ccnc(N4CCn5c(cc6c5CC(C)(C)C6)C4=O)c3CO)cn(C)c2=O)ns1` [Example 310, 3-[3-(hydroxymethyl)-4-[1-methyl-5-[(5-methylisothiazol-3-yl)amino]-6-oxo-3-pyridyl]-2-pyridyl]-7,7-dimethyl-1,2,6,8-tetrahydrocyclopenta[3,4]pyrrolo[3,5-b]pyrazin-4-one] the IC70 was 119 nM.
`Cn1cc(-c2ccnc(N3CCn4c(cc5c4CC(C)(C)C5)C3=O)c2CO)cc(Nc2cc(C3CC3)on2)c1=O` [Example 311, 3-[4-[5-[(5-cyclopropylisoxazol-3-yl)amino]-1-methyl-6-oxo-3-pyridyl]-3-(hydroxymethyl)-2-pyridyl]-7,7-dimethyl-1,2,6,8-tetrahydrocyclopenta[3,4]pyrrolo[3,5-b]pyrazin-4-one] gave an IC70 of 158 nM.
For `Cc1cc(Nc2cc(-c3ccnc(N4CCn5c(cc6c5CC(C)(C)C6)C4=O)c3CO)cn(C)c2=O)nn1C1COC1` [Example 312, 3-[3-(hydroxymethyl)-4-[1-methyl-5-[[5-methyl-1-(oxetan-3-yl)pyrazol-3-yl]amino]-6-oxo-3-pyridyl]-2-pyridyl]-7,7-dimethyl-1,2,6,8-tetrahydrocyclopenta[3,4]pyrrolo[3,5-b]pyrazin-4-one], the IC70 was 5600 nM.
In the case of `CN1Cc2cc(Nc3cc(-c4ccnc(N5CCn6c(cc7c6CC(C)(C)C7)C5=O)c4CO)cn(C)c3=O)nn2CC1=O` [Example 313, 3-[3-(hydroxymethyl)-4-[1-methyl-5-[(5-methyl-6-oxo-4,7-dihydropyrazolo[1,5-a]pyrazin-2-yl)amino]-6-oxo-3-pyridyl]-2-pyridyl]-7,7-dimethyl-1,2,6,8-tetrahydrocyclopenta[3,4]pyrrolo[3,5-b]pyrazin-4-one], the IC70 is reported as 19.1 nM.
For `Cn1cc(-c2ccnc(N3CCn4c(cc5c4CC(C)(C)C5)C3=O)c2CO)cc(Nc2ccc(N3CC(O)C3)cn2)c1=O` [Example 314, 3-[4-[5-[[5-(3-hydroxyazetidin-1-yl)-2-pyridyl]amino]-1-methyl-6-oxo-3-pyridyl]-3-(hydroxymethyl)-2-pyridyl]-7,7-dimethyl-1,2,6,8-tetrahydrocyclopenta[3,4]pyrrolo[3,5-b]pyrazin-4-one], the IC70 was 44.6 nM.
In the case of `Cn1nc(Nc2cc(-c3ccnc(N4CCn5c(cc6c5CC(C)(C)C6)C4=O)c3CO)cn(C)c2=O)cc1C(=O)N1CCCC1` [Example 315, 3-[3-(hydroxymethyl)-4-[1-methyl-5-[[1-methyl-5-(pyrrolidine-1-carbonyl)pyrazol-3-yl]amino]-6-oxo-3-pyridyl]-2-pyridyl]-7,7-dimethyl-1,2,6,8-tetrahydrocyclopenta[3,4]pyrrolo[3,5-b]pyrazin-4-one], the IC70 is reported as 15 nM.
`COCc1cc(Nc2cc(-c3ccnc(N4CCn5c(cc6c5CC(C)(C)C6)C4=O)c3CO)cn(C)c2=O)nn1C` [Example 316, 3-[3-(hydroxymethyl)-4-[5-[[5-(methoxymethyl)-1-methyl-pyrazol-3-yl]amino]-1-methyl-6-oxo-3-pyridyl]-2-pyridyl]-7,7-dimethyl-1,2,6,8-tetrahydrocyclopenta[3,4]pyrrolo[3,5-b]pyrazin-4-one] gave an IC70 of 20.2 nM.
For `CN1Cc2cc(Nc3cc(-c4ccnc(N5CCc6c(sc7c6CC(C)(C)C7)C5=O)c4CO)cn(C)c3=O)nn2CC1=O` [Example 317, 3-[3-(hydroxymethyl)-4-[1-methyl-5-[(5-methyl-6-oxo-4,7-dihydropyrazolo[1,5-a]pyrazin-2-yl)amino]-6-oxo-3-pyridyl]-2-pyridyl]-7,7-dimethyl-1,2,6,8-tetrahydrocyclopenta[3,4]thieno[1,3-c]pyridin-4-one], the IC70 was 58.6 nM.
For `C[C@@H]1c2cc(Nc3cc(-c4ccnc(N5CCn6c(cc7c6CC(C)(C)C7)C5=O)c4CO)cn(C)c3=O)nn2CCN1C` [Example 318, (R)-2-(5-((4,5-dimethyl-4,5,6,7-tetrahydropyrazolo[1,5-a]pyrazin-2-yl)amino)-3′-(hydroxymethyl)-1-methyl-6-oxo-1,6-dihydro-[3,4′-bipyridin]-2′-yl)-7,7-dimethyl-2,3,4,6,7,8-hexahydro-1H-cyclopenta[4,5]pyrrolo[1,2-a]pyrazin-1-one], the IC70 was 108 nM.
For `C[C@H]1c2cc(Nc3cc(-c4ccnc(N5CCn6c(cc7c6CC(C)(C)C7)C5=O)c4CO)cn(C)c3=O)nn2CCN1C` [Example 319, (S)-2-(5-((4,5-dimethyl-4,5,6,7-tetrahydropyrazolo[1,5-a]pyrazin-2-yl)amino)-3′-(hydroxymethyl)-1-methyl-6-oxo-1,6-dihydro-[3,4′-bipyridin]-2′-yl)-7,7-dimethyl-2,3,4,6,7,8-hexahydro-1H-cyclopenta[4,5]pyrrolo[1,2-a]pyrazin-1-one], the IC70 was 16.7 nM.
Compound `C[C@@H]1COC[C@H](C)N1C(=O)c1ccc(Nc2cc(-c3ccnc(N4CCn5c(cc6c5CC(C)(C)C6)C4=O)c3CO)cn(C)c2=O)nc1` [Example 320, 3-[4-[5-[[5-[(3S,5R)-3,5-dimethylmorpholine-4-carbonyl]-2-pyridyl]amino]-1-methyl-6-oxo-3-pyridyl]-3-(hydroxymethyl)-2-pyridyl]-7,7-dimethyl-1,2,6,8-tetrahydrocyclopenta[3,4]pyrrolo[3,5-b]pyrazin-4-one] has an IC70 of 46.8 nM.
`C[C@@H]1COC[C@H](C)N1C(=O)c1ccc(Nc2cc(-c3ccnc(N4CCn5c(cc6c5CC(C)(C)C6)C4=O)c3CO)nn(C)c2=O)nc1` [Example 321, 3-[4-[5-[[5-[(3 S,5R)-3,5-dimethylmorpholine-4-carbonyl]-2-pyridyl]amino]-1-methyl-6-oxo-pyridazin-3-yl]-3-(hydroxymethyl)-2-pyridyl]-7,7-dimethyl-1,2,6,8-tetrahydrocyclopenta[3,4]pyrrolo[3,5-b]pyrazin-4-one] showed an IC70 of 112 nM.
`C[C@@H]1COC[C@H](C)N1C(=O)c1ccc(Nc2cc(-c3ccnc(N4CCn5c(cc6c5CCCC6)C4=O)c3CO)cn(C)c2=O)nc1` [Example 322, 2-[4-[5-[[5-[(3S,5R)-3,5-dimethylmorpholine-4-carbonyl]-2-pyridyl]amino]-1-methyl-6-oxo-3-pyridyl]-3-(hydroxymethyl)-2-pyridyl]-3,4,6,7,8,9-hexahydropyrazino[1,2-a]indol-1-one] showed an IC70 of 79.6 nM.
Compound `COC1CN(c2ccc(Nc3cc(-c4ccnc(N5CCn6c(cc7c6CC(C)(C)C7)C5=O)c4CO)cn(C)c3=O)nc2)C1` [Example 323, 3-[3-(hydroxymethyl)-4-[5-[[5-(3-methoxyazetidin-1-yl)-2-pyridyl]amino]-1-methyl-6-oxo-3-pyridyl]-2-pyridyl]-7,7-dimethyl-1,2,6,8-tetrahydrocyclopenta[3,4]pyrrolo[3,5-b]pyrazin-4-one] has an IC70 of 279 nM.
